Test: gradient 5% acetonitrile 3 min, to 50% in 2 min, to 85% in 15 min, held 3 min, 100 µL/min
Details: column: Zorbax Extend-C18 2.1 x 50 mm; eluents: water / acetonitrile, 0.1% formic acid
Method in brief: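 Retention time was recorded from adduct peaks, which were picked computationally and each inspected manually. Pure standards ran in mixtures of ~100 molecules on HPLC coupled to a quadrupole time-of-flight mass spectrometer, in positive and negative ionization mode, through a Zorbax Extend-C18 column (2.1 × 50 mm, 1.8 μm) at 100 μL/min. Eluents were water and acetonitrile, each with 0.1% formic acid.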

Row | SMILES | RP-LC retention time
1 | CC(=O)N1CCC(C(=O)Nc2ccsc2-c2nc(-c3ccccc3)no2)CC1 | 980 s
2 | CN1c2ccccc2C(=O)NC12CCN(C(=O)Nc1ccccc1F)CC2 | 695 s
3 | Cc1ccc(CNC2=NCCNC23CCN(S(=O)(=O)c2ccc(C)cc2)CC3)cc1 | 736 s
4 | CCNC(=O)N1CCCC(c2nn(C)c(=O)n2C2CCCC2)C1 (centres undefined) | 630 s
5 | CCOC(=O)Nc1nc2c(s1)CN(C(=O)Nc1ccc3c(c1)OCO3)CC2 | 670 s
6 | CCC(C)NC(=O)C1CC(=O)N(c2ccc3c(c2)CCN3C(=O)C2CC2)C1 (centres undefined) | 686 s
7 | CCCNC(=O)C1CCCN(c2ccc(SCC(=O)NCCc3ccc(Cl)cc3)nn2)C1 (centres undefined) | 676 s
8 | CCn1c(=O)c(N2CCN(C(=O)Nc3ccc(Br)c(C)c3)CC2)nc2cccnc21 | 1060 s
9 | Cc1ncc2c(n1)C[C@@H]1CC[C@H]2N1C(=O)Nc1ccc(C)c(F)c1 | 728 s
10 | CCc1noc(NC(C)=O)c1-c1ccc(C)c(S(=O)(=O)N2CCOCC2)c1 | 743 s
11 | O=C(Nc1ccc(-c2nc3ccccc3s2)cc1)c1cc(=O)c2ccccc2o1 | 1030 s
12 | COc1ccccc1CNC(=O)C1CCc2nc(N3CCOCC3)ncc2C1 (centres undefined) | 719 s
13 | CCSc1nnc(NC(=O)c2cc(=O)c(OCc3cccc(OC)c3)cn2C)s1 | 685 s
14 | Cc1cccc(-n2cc(C(=O)OCc3cccnc3)c3ccccc3c2=O)c1 | 808 s
15 | O=C(Nc1ccc(C2(C(=O)NCc3cccc(Cl)c3)CCC2)cc1)C1CC1 | 891 s
16 | Cc1ccc(C)c(S(=O)(=O)N2CCCCCC2c2nnc(C)o2)c1 (centres undefined) | 908 s
17 | CCOc1ccc(CCNC(=O)c2ccc(-n3cnc(NC(=O)C4CC4)c3)cc2)cc1OCC | 748 s
18 | CCc1cc(=O)n(CC(=O)Nc2cc(C)ccc2OC)c(N2CCOCC2)n1 | 854 s
19 | COc1ccc(C(=O)Nc2cccn3nc(C)nc23)cc1 | 719 s
20 | CCc1nc2cc(-c3noc(COc4ccc(OC)cc4)n3)ccc2o1 | 1070 s
21 | O=C1c2cccc3c2[C@H](CCC3)CN1[C@@H]1CN2CCC1CC2 | 678 s
22 | Cc1ccccc1Nc1c(-c2ccccc2)nc2ccc(Br)cn12 | 799 s
23 | Cc1ccc(NC(=O)Nc2ccc3nnc(C)n3c2)cc1F | 710 s

Row | SMILES | RP-LC retention time
24 | CCn1cc(CCN2CCN(S(=O)(=O)c3ccc(C)c(Cl)c3)CC2)c2cccnc21 | 708 s
25 | COc1ccc(C2(C(=O)N3CCCOCCNC(=O)[C@@H]4CCCC[C@@H]43)CC2)cc1 | 750 s
26 | COc1ccc(Cl)c2c(=O)c3c([nH]c12)CCN(CC(=O)NCc1ccc(Cl)cc1)C3 | 762 s
27 | Cc1noc(-c2ccc(OC3CN(S(=O)(=O)c4c(C)nn(C)c4C)C3)cc2)n1 | 807 s
28 | Cc1ncnc2c1CCC(=O)N2CC1CCCCC1 | 848 s
29 | CCOC(=O)c1c(C)[nH]c(CCC(=O)NCCN2CCN(C)CC2)c1C | 579 s
30 | Cc1cccc(NC(=O)Cn2nnc(-c3ccccc3)n2)c1C | 588 s
31 | CCOC(=O)c1scc(-c2ccc(C)cc2)c1S(=O)(=O)N1CCN(c2ccccn2)CC1 | 866 s
32 | COc1ccc(NC(=O)COc2cc(C)nc(N3CCCC3)n2)cc1Cl | 653 s
33 | Cc1cc(NC(=O)C2CCN(C(=O)C3Sc4ccccc4NC3=O)CC2)ccc1Br (centres undefined) | 901 s
34 | O=c1c2c(CO)c(-c3ccccc3)nn2ccn1Cc1ccccc1Cl | 961 s
35 | O=C(Nc1nc(-c2cccs2)cs1)c1cccc([N+](=O)[O-])c1 | 936 s
36 | CCC1CCCCN1CCNC(=O)C1CCCN(c2cnc3nccnc3c2)C1 (centres undefined) | 569 s
37 | C=CCN1CCN(c2nc3cc(C(=O)OC)ccc3c(=O)n2-c2ccc(Cl)cc2)CC1 | 681 s
38 | CCn1cc(-c2nc(C(=O)NCc3ccc(OC)cc3)cs2)c2cccnc21 | 958 s
39 | CC(CCc1ccco1)NC(=O)C1CCc2nc(N3CCCC3)ncc2C1 (centres undefined) | 620 s
40 | CCn1cc(-c2ccc(C)cc2)cc1C(=O)N1CCC(C)CC1 | 1230 s
41 | Cc1cc(NC(=O)C(=O)c2c[nH]c3ccccc23)ccc1Br | 1120 s
42 | O=C(COc1ccccc1)N1CCC(CNS(=O)(=O)c2cccnc2)CC1 | 658 s
43 | Cc1ccc(C)c(CN2CCC(N3CCN(Cc4nc(C)no4)C3=O)C2)c1 (centres undefined) | 630 s
44 | CCn1c(N2CCCC(C(=O)NCC3CCN(Cc4ccccc4C)CC3)C2)cc(=O)n(C)c1=O (centres undefined) | 643 s
45 | COc1ccc(Nc2nc(-c3ccc(OC)cc3)c(CCC(=O)O)s2)cc1 | 756 s
46 | NS(=O)(=O)c1cccnc1Nc1cccc(C(F)(F)F)c1 | 932 s

Row | SMILES | RP-LC retention time
47 | Cc1cccc(NC(=O)C2CCCN(S(=O)(=O)c3c[nH]c(C(=O)N4CCCCCC4)c3)C2)c1C (centres undefined) | 883 s
48 | Cc1sc(C)c(S(=O)(=O)N2CCC(C)CC2)c1-c1cc(C(F)(F)F)on1 | 1320 s
49 | Cc1ccc(N2CCC(NC(=O)CC(C)C)C2=O)cc1 (centres undefined) | 762 s
50 | CCn1c(=O)sc2cc(S(=O)(=O)N3CCC(C(=O)Nc4ccccc4)CC3)ccc21 | 878 s
51 | Nc1ncnc2c1nc(Cl)n2C1OC2COP(=O)(O)OC2C1O (centres undefined) | 523 s
52 | O=C(c1ccc(Br)cc1)N1CCc2[nH]nc(C(=O)N3CCOCC3)c2C1 | 661 s
53 | CS(=O)(=O)N1CCC(C(=O)NC2CCCCC2)Oc2ccc(Cl)cc21 (centres undefined) | 922 s
54 | O=c1n(CCOc2ccccc2)nc2c(S(=O)(=O)N3CCc4ccccc4C3)cccn12 | 820 s
55 | Cc1ccc(C2=NC3(CCN(C(=O)c4ccc5cc[nH]c5c4)CC3)ON2)cc1 | 755 s
56 | Cc1ccc(-c2csc(-n3nc(C)c(CC(=O)Nc4ccc(C)c(C)c4)c3C)n2)cc1 | 1310 s
57 | CCCCN1C(=O)C(C)(C(=O)Nc2cc(C)ccc2C)Oc2cccnc21 (centres undefined) | 1110 s
58 | O=C1Cc2ccccc2N1c1c(Cl)cccc1Cl | 875 s
59 | O=C(NCCc1ccccc1)c1ccc2c(c1)NC(=O)C1CCCCN21 (centres undefined) | 806 s
60 | CSc1ccccc1CN1CCC(CNC(=O)c2ccccc2Br)CC1 | 572 s
61 | Cc1ccc(S(=O)(=O)N2CCCCC2)cc1-c1nnc(-c2ccccc2Cl)o1 | 1160 s
62 | COC(=O)c1cccc(C(=O)N2CCc3ccccc3C2)n1 | 769 s
63 | CC1Oc2ccc(S(=O)(=O)N3CCC(C(=O)Nc4ccc(Cl)cc4)CC3)cc2NC1=O (centres undefined) | 778 s
64 | CC(=O)N1CCCc2cc(S(=O)(=O)N3CCC(C(=O)Nc4cccc(C)n4)CC3)ccc21 | 684 s
65 | O=C([C@@H]1C[C@H](Oc2cccnc2)CN1C(=O)Cn1c(=O)oc2ccccc21)N1CCCC1 | 601 s
66 | CCOCCCNC(=O)C1c2ccccc2C(=O)N(C2CCCC2)C1c1cccs1 (centres undefined) | 882 s
67 | Cn1nc(CNC(=O)c2ccc(Cl)cc2)c2ccccc21 | 852 s
68 | Cc1nc2cc(-c3noc(-c4ccc(C#N)cc4)n3)ccc2n(C2CCCC2)c1=O | 691 s
69 | CNC(=O)[C@@H]1CN(C(=O)c2cnc(C)cn2)C[C@H]1c1n[nH]c(C)n1 | 549 s

Row | SMILES | RP-LC retention time
70 | CCc1nnc(-c2ccc(NC(=O)COc3ccccc3F)cc2)o1 | 772 s
71 | COc1ccc(NC(=O)C2(CCO)CCN(c3ncccn3)C2)cn1 (centres undefined) | 706 s
72 | COc1ccc(F)cc1S(=O)(=O)N1C[C@@H](F)C[C@H]1C(=O)N1CCc2ccccc2C1 | 881 s
73 | O=C(Nc1cccc(Br)c1)C1CCCN(c2ncc(-c3ccc(F)cc3)cn2)C1 (centres undefined) | 1250 s
74 | COc1cccc(CNC(=O)C2CCCN(C(=O)C3Sc4ccccc4NC3=O)C2)c1 (centres undefined) | 737 s
75 | COc1ccc(Nc2c(-c3ccc(N(C)C)cc3)nc3cnc(Br)cn23)cc1OC | 812 s
76 | CC(=O)N(CC(=O)N1CCc2sccc2C1COc1ccc(F)cc1)C(C)C (centres undefined) | 805 s
77 | Cc1nc(N2CCOCC2)c2c(C(=O)NCCCc3ccccc3)c(C)oc2n1 | 805 s
78 | COc1cccc(C(=O)N2CCC3(CC2)c2nccn2-c2ccccc2CN3C)c1 | 612 s
79 | Cc1nn(-c2ccccc2)c2c1N(CC(=O)NC(C)c1ccccc1)C(=O)CS2 (centres undefined) | 845 s
80 | Cc1ccc(C)c(S(=O)(=O)N2CCC3(CC2)NCCN=C3NCc2ccccc2C)c1 | 787 s
81 | CC(C)C(=O)Nc1ccc(C2(C(=O)NCc3ccccn3)CCC2)cc1 | 611 s
82 | Cc1ccc(CSc2ncnc3nc[nH]c23)cc1 | 774 s
83 | Cc1ccc(CNCc2ccc3c(c2)n(C)c(=O)n3C)cc1 | 619 s
84 | Cc1ccc(-c2cc(C(=O)NCCN3CCN(C)CC3)n(C)c2)cc1 | 624 s
85 | Cc1nc(-c2ccccc2)cc2nn(CC(=O)N3CCC(C)CC3)c(=O)n12 | 903 s
86 | CC(C)c1ccc(NC(=O)C(=O)NCCCN2CCN(c3ccccc3)CC2)cc1 | 631 s
87 | CCn1nccc1-c1cccc(-c2noc(C3CC(=O)N(c4ccc(C)c(C)c4)C3)n2)c1 (centres undefined) | 1080 s
88 | Cn1cc(CC(=O)NCc2cccc(F)c2)c2cccnc21 | 669 s
89 | CCN1CCCC(C(=O)NCc2cccc(OC)c2OC)(c2ccccc2)CC1 (centres undefined) | 660 s
